Data: ChEMBL document CHEMBL1144622, “Novel malonamide derivatives as potent kappa opioid receptor agonists” (Bioorg Med Chem Lett, 2007)

Legend:
[1] = target: Kappa-type opioid receptor (Homo sapiens, UniProt P41145); test: Agonist activity at human kappa opioid receptor by [35S]GTP-gamma-S binding assay; assay type: functional
[2] = target: Opioid receptors; mu & kappa (Homo sapiens) (UniProt P41145+P35372); test: Selectivity for human kappa opioid receptor over human mu opioid receptor; assay type: functional
[3] = target: Opioid receptors; delta & kappa (Homo sapiens) (UniProt P41145+P41143); test: Selectivity for human kappa opioid receptor over human delta opioid receptor; assay type: functional
[4] = target: Cytochrome P450 2D6 (Homo sapiens, UniProt P10635); test: Inhibition of CYP2D6; assay type: ADME
[5] = test system: Rattus norvegicus; test: Antinociceptive activity in rat at 300 ug, sc by formalin-induced flinching assay; assay type: functional
[6] = test system: Mus musculus; test: Analgesic activity in sc dosed mouse assessed as inhibition of acetic acid-induced writhing; assay type: functional

Kappa-type opioid receptor, sequence (P41145 whole entry): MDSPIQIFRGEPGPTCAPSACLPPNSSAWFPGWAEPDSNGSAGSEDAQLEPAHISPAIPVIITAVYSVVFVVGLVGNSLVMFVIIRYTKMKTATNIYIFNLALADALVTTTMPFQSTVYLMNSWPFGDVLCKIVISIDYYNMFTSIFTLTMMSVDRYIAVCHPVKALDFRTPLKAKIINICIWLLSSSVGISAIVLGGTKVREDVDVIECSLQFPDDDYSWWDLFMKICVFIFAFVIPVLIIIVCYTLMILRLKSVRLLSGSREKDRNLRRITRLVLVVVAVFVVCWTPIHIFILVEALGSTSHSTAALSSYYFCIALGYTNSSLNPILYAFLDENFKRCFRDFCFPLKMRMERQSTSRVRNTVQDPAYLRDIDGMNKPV
Cytochrome P450 2D6, sequence (P10635 whole entry): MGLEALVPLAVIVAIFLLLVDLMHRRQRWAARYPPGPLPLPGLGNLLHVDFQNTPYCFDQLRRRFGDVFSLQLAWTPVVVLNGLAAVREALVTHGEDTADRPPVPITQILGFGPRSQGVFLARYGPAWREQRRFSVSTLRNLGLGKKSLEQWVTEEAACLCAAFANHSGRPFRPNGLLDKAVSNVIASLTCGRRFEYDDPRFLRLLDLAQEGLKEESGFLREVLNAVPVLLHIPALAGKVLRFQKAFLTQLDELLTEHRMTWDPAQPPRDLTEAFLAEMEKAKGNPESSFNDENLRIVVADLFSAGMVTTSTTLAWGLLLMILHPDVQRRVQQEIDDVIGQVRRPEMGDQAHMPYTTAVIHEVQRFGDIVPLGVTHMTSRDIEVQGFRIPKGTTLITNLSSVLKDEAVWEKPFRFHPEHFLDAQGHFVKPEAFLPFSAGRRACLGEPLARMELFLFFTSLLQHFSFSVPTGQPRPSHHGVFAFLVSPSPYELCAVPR
Opioid receptors; mu & kappa (Homo sapiens), sequence (P35372 whole entry, looked up): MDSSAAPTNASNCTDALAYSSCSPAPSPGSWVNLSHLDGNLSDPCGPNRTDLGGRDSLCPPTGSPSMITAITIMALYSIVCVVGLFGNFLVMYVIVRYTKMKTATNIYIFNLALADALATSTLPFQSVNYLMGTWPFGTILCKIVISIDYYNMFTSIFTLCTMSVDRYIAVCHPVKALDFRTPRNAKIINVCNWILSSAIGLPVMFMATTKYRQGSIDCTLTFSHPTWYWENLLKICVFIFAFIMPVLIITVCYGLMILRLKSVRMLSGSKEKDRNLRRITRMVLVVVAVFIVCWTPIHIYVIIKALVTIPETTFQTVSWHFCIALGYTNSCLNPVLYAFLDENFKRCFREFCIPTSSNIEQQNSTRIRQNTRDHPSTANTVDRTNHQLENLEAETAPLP
Opioid receptors; mu & kappa (Homo sapiens), sequence (P41145 whole entry, looked up): as the sequence (P41145 whole entry) above
Opioid receptors; delta & kappa (Homo sapiens), sequence (P41143 whole entry, looked up): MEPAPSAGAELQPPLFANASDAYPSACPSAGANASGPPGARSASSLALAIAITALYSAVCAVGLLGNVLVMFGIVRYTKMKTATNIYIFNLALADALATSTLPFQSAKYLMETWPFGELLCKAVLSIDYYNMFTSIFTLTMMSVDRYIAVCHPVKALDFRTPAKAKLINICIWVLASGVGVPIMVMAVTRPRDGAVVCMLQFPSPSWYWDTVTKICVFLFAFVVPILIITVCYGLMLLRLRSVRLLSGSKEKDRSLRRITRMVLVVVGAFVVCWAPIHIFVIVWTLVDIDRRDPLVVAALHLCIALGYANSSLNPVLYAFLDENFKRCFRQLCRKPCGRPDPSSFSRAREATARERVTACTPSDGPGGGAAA
Opioid receptors; delta & kappa (Homo sapiens), sequence (P41145 whole entry, looked up): as the sequence (P41145 whole entry) above

SMILES	Ki [1]	Ratio Ki [2]	Ratio Ki [3]	IC50 [4]	Activity [5]	ED50 [6]
CN(C(=O)CC(=O)Nc1cccnc1)[C@H](CN1CC[C@H](O)C1)c1ccccc1	1.3 nM	450	15	> 10000 nM		
CN(C(=O)CCC(=O)Nc1cccnc1)[C@H](CN1CC[C@H](O)C1)c1ccccc1	280 nM		5	> 10000 nM		
CN(C(=O)CC(=O)Nc1ccc(CNS(C)(=O)=O)cc1)[C@H](CN1CC[C@H](O)C1)c1ccccc1	96 nM	4.3	10	5400 nM		
CN(C(=O)NCC(=O)Nc1ccccc1)[C@H](CN1CC[C@H](O)C1)c1ccccc1	6.5 nM	110	8.7	5100 nM		
CN(C(=O)CCC(=O)Nc1nccs1)[C@H](CN1CC[C@H](O)C1)c1ccccc1	23 nM		14	3400 nM		
CN(C(=O)CC(=O)Nc1nccs1)[C@H](CN1CC[C@H](O)C1)c1ccccc1	0.53 nM	180	71	700 nM		
CN(C(=O)CCC(=O)Nc1ccccc1)[C@H](CN1CC[C@H](O)C1)c1ccccc1	6 nM		220	8600 nM		
CN(C(=O)CC(=O)Nc1ccc(NS(C)(=O)=O)cc1)[C@H](CN1CC[C@H](O)C1)c1ccccc1	29 nM	4.8	39	10000 nM		
CN(C(=O)CC(=O)Nc1ccccc1)[C@H](CN1CC[C@H](O)C1)c1ccccc1	0.27 nM	120	25	5300 nM	93%	0.03 mg/kg
CN(C(=O)CC(=O)NCc1ccccc1)[C@H](CN1CC[C@H](O)C1)c1ccccc1	15 nM	120	40	3200 nM		
